Test results from EP0014295B1, “Benzodioxan derivatives, process for their preparation and their therapeutical applications” (Bouchara, Emile Dr., priority 1979, dated 1980).

Legend:
Acute toxicity, oral = conditions: mouse, in vivo, souris, per os, read-out: Dose léthale 50 approchée mg/kg per os
Description: La toxicité a été déterminée chez la souris par voie orale. Les résultats sont donnés dans le tableau III.

[1] = system: pression artérielle de l'animal hypertendu non anesthésié; assay: Effect on arterial pressure of the non-anaesthetised hypertensive animal, oral (dog); type: in vivo, chien
Description: (§1) b) Effet sur la pression artérielle de l'animal hypertendu non anesthésié.
(§2) L'étude a été conduite chez le rat et chez le chien. On a utilisé, d'une part, des animaux (rats) présentant une hypertension expérimentale induite par ligature de l'aorte abdominale entre les deux artères rénales et, d'autre part, des animaux (rats et chiens) porteurs d'hypertension spontanée.
(§3) Le composé de l'exemple 2 a été administré par voie orale soit en prise unique pour connaître la cinétique d'action du produit, soit en traitement prolongé.

[2] = system: pression artérielle de l'animal normotendu anesthésié; assay: Effect on arterial pressure of the anaesthetised normotensive animal, intravenous (dog); type: in vivo; conditions: chien normotendu anesthésié, voie intraveineuse
Description: (§4) a) Effet sur la pression artérielle de l'animal normotendu anesthésié.
(§5) L'étude a été conduite chez le rat, le lapin et le chien. Le composé de l'exemple 2 a été administré par voie intraveineuse. Les différents paramètres enregistrés ont été les pressions artérielles systoliques, diastoliques et moyennes, la fréquence cardiaque, la vitesse d'éjection systolique (dp/dt). La force de contraction cardiaque, les débits artériel et veineux ont été enregistrés chez le chien uniquement.

système nerveux central = assay: Effects on the central nervous system, oral; type: in vivo; conditions: souris, voie orale, doses provoquant une activité antihypertensive chez le rat
Description: Ces effets centraux sont peut-être directement liés à l'action hypotensive

rats = assay: Chronic toxicity, mixed with food for 45 days; type: in vivo; conditions: 75 mg/kg/jour, mélangé à la nourriture, 45 jours
Description: Le composé de l'exemple 2, mélangé à la nourriture, a été administré 45 jours de suite à des rats.

[3] = system: pression artérielle de l'animal normotendu anesthésié; assay: Effect on arterial pressure of the anaesthetised normotensive animal, intravenous (rabbit); type: in vivo; conditions: lapin normotendu anesthésié, voie intraveineuse, dès la dose de 0,250 mg/kg; proportionnelle aux doses en intensité et en durée
Description: as §4, §5

[4] = system: pression artérielle de l'animal hypertendu non anesthésié; assay: Effect on arterial pressure of the non-anaesthetised hypertensive animal, oral (rat); type: in vivo
Description: as §1, §2, §3

[5] = system: pression artérielle de l'animal normotendu anesthésié; assay: Effect on arterial pressure of the anaesthetised normotensive animal, intravenous (rat); type: in vivo; conditions: voie intraveineuse
Description: as §4, §5

[6] = dès la dose de 0,250 mg/kg, proportionnelle aux doses en intensité et en durée

## O=C(c1ccc(O)cc1)C1CCN(CC2COc3ccccc3O2)CC1 (centres unmarked) [Exemple 7, 1-[(2,3-Dihydro-4H-1,4-benzodioxin)-2-ylméthyl]-4-(4-hydroxy-benzoyl) pipéridine]
Acute toxicity, oral
  LD50: 440 mg/kg

## O=C(Oc1ccc(C(=O)C2CCN(CC3COc4ccccc4O3)CC2)cc1)c1cccnc1 (centres unmarked) [Exemple 8, Nicotinatede la 1-[(2,3-dihydro-4H-1,4-benzodioxin)-2-ylméthyl]-4-(4-hydroxybenzoyl) pipéridine]
Acute toxicity, oral
  LD50: > 3200 mg/kg

## O=C(c1ccccc1)C1CCN(CC2COc3ccccc3O2)CC1 (centres unmarked) [Exemple 9, Ghlorhydratede la 1-[(2,3-dihydro-4H-1,4-benzodioxin)-2-ylméthyl]-4-benzoyl pipéridine]
Acute toxicity, oral
  LD50: 2400 mg/kg

## COc1ccc(C(=O)C2CCN(CC3COc4ccccc4O3)CC2)cc1 (centres unmarked) [Exemple 4, Fumaratede la 1-[(2,3-dihydro-4H-1,4-benzodioxin)-2-ylméthyl]-4-(4-méthoxybenzoyl) pipéridine]
Acute toxicity, oral
  LD50: 364 mg/kg

## O=C(c1ccc(F)cc1)C1CCN(CC2COc3ccccc3O2)CC1 (centres unmarked) [Exemple 2, Chlorhydratede la 1-[(2,3-dihydro-4H-1,4-benzodioxin)-2-ylméthyl]-4-(4-fluorobenzoyl) pipéridine]
[1]; 10 mg/kg P.O., 20mn
  Diminution de la pression artérielle en mm de mercure Chez le chien: 10±4 mm de mercure
[1]; 10 mg/kg P.O., 40mn
  Diminution de la pression artérielle en mm de mercure Chez le chien: 10±4 mm de mercure
[1]; 10 mg/kg P.O., 1h
  Diminution de la pression artérielle en mm de mercure Chez le chien: 18±3 mm de mercure
[1]; 10 mg/kg P.O., 2h
  Diminution de la pression artérielle en mm de mercure Chez le chien: 11±1 mm de mercure
[1]; 10 mg/kg P.O., 5h
  Diminution de la pression artérielle en mm de mercure Chez le chien: 4±3 mm de mercure
[1]; 10 mg/kg P.O., 7h
  Diminution de la pression artérielle en mm de mercure Chez le chien: 1±2 mm de mercure
[1]; 10 mg/kg P.O., 24h
  Diminution de la pression artérielle en mm de mercure Chez le chien: 0±1 mm de mercure
[1]; 20 mg/kg P.O., 20mn
  Diminution de la pression artérielle en mm de mercure Chez le chien: 12±4 mm de mercure
[1]; 20 mg/kg P.O., 40mn
  Diminution de la pression artérielle en mm de mercure Chez le chien: 26±3 mm de mercure
[1]; 20 mg/kg P.O., 1h
  Diminution de la pression artérielle en mm de mercure Chez le chien: 38±2 mm de mercure
[1]; 20 mg/kg P.O., 2h
  Diminution de la pression artérielle en mm de mercure Chez le chien: 37±3 mm de mercure
[1]; 20 mg/kg P.O., 5h
  Diminution de la pression artérielle en mm de mercure Chez le chien: 18±7 mm de mercure
[1]; 20 mg/kg P.O., 7h
  Diminution de la pression artérielle en mm de mercure Chez le chien: 8±1 mm de mercure
[1]; 20 mg/kg P.O., 24h
  Diminution de la pression artérielle en mm de mercure Chez le chien: 2±3 mm de mercure
[1]; 50 mg/kg P.O., 20mn
  Diminution de la pression artérielle en mm de mercure Chez le chien: 21±9 mm de mercure
[1]; 50 mg/kg P.O., 40mn
  Diminution de la pression artérielle en mm de mercure Chez le chien: 31±6 mm de mercure
[1]; 50 mg/kg P.O., 1h
  Diminution de la pression artérielle en mm de mercure Chez le chien: 40±8 mm de mercure
[1]; 50 mg/kg P.O., 2h
  Diminution de la pression artérielle en mm de mercure Chez le chien: 46±3 mm de mercure
[1]; 50 mg/kg P.O., 5h
  Diminution de la pression artérielle en mm de mercure Chez le chien: 28±8 mm de mercure
[1]; 50 mg/kg P.O., 7h
  Diminution de la pression artérielle en mm de mercure Chez le chien: 22±6 mm de mercure
[1]; 50 mg/kg P.O., 24h
  Diminution de la pression artérielle en mm de mercure Chez le chien: 1±2 mm de mercure
[1]; chien hypertendu, voie orale, prise unique ou traitement prolongé, augmentant avec les doses jusqu'à un plafond
  action antihypertensive: action antihypertensive nette, prolongée
[1]; chien, après arrêt du traitement, retour progressif à la normale
  effet antihypertenseur après arrêt du traitement: persistance de l'effat antihypertenseur
[2]; [6]
  pression artérielle: chute tensionnelle systo- diastolique très rapide
[2]; parallèlement à l'hypotension
  dp/dt (vitesse d'éjection systolique): augmentation
  débits artériel et veineux: augmentation
  force de contraction cardiaque: augmentation
système nerveux central
  agressivité: diminution
  sommeil expérimental: potentialisation
  sédation: sédation générale
rats
  anomalie clinique, hématologique, anatomique: aucune anomalie ni clinique, ni hématologique, ni anatomique
  taux des triglycérides: chute nette et isolée
[3]
  pression artérielle: chute tensionnelle systo- diastolique très rapide
Acute toxicity, oral
  LD50: 880 mg/kg
[4]; 10 mg/kg P.O., 10mn
  Diminution de la pression artérielle en mm de mercure Chez le rat: 39±11 mm de mercure
[4]; 10 mg/kg P.O., 30mn
  Diminution de la pression artérielle en mm de mercure Chez le rat: 45±10 mm de mercure
[4]; 10 mg/kg P.O., 1h
  Diminution de la pression artérielle en mm de mercure Chez le rat: 33±9 mm de mercure
[4]; 10 mg/kg P.O., 2h
  Diminution de la pression artérielle en mm de mercure Chez le rat: 20±6 mm de mercure
[4]; 10 mg/kg P.O., 6h
  Diminution de la pression artérielle en mm de mercure Chez le rat: 6±3 mm de mercure
[4]; 20 mg/kg P.O., 10mn
  Diminution de la pression artérielle en mm de mercure Chez le rat: 66±8 mm de mercure
[4]; 20 mg/kg P.O., 30mn
  Diminution de la pression artérielle en mm de mercure Chez le rat: 63±6 mm de mercure
[4]; 20 mg/kg P.O., 1h
  Diminution de la pression artérielle en mm de mercure Chez le rat: 49±7 mm de mercure
[4]; 20 mg/kg P.O., 2h
  Diminution de la pression artérielle en mm de mercure Chez le rat: 37±7 mm de mercure
[4]; 20 mg/kg P.O., 6h
  Diminution de la pression artérielle en mm de mercure Chez le rat: 29±6 mm de mercure
[4]; 20 mg/kg P.O., 12h
  Diminution de la pression artérielle en mm de mercure Chez le rat: 17±7 mm de mercure
[4]; 20 mg/kg P.O., 18h
  Diminution de la pression artérielle en mm de mercure Chez le rat: 8±4 mm de mercure
[4]; 20 mg/kg P.O., 24h
  Diminution de la pression artérielle en mm de mercure Chez le rat: 3±3 mm de mercure
[4]; 50 mg/kg P.O., 10mn
  Diminution de la pression artérielle en mm de mercure Chez le rat: 68±6 mm de mercure
[4]; 50 mg/kg P.O., 30mn
  Diminution de la pression artérielle en mm de mercure Chez le rat: 68±5 mm de mercure
[4]; 50 mg/kg P.O., 1h
  Diminution de la pression artérielle en mm de mercure Chez le rat: 52±6 mm de mercure
[4]; 50 mg/kg P.O., 2h
  Diminution de la pression artérielle en mm de mercure Chez le rat: 38±7 mm de mercure
[4]; 50 mg/kg P.O., 6h
  Diminution de la pression artérielle en mm de mercure Chez le rat: 32±8 mm de mercure
[4]; 50 mg/kg P.O., 12h
  Diminution de la pression artérielle en mm de mercure Chez le rat: 16±7 mm de mercure
[4]; 50 mg/kg P.O., 18h
  Diminution de la pression artérielle en mm de mercure Chez le rat: 8±5 mm de mercure
[4]; 50 mg/kg P.O., 24h
  Diminution de la pression artérielle en mm de mercure Chez le rat: 5±5 mm de mercure
[4]; rat hypertendu, voie orale, prise unique ou traitement prolongé, augmentant avec les doses jusqu'à un plafond
  action antihypertensive: action antihypertensive nette, prolongée
[5]
  fréquence cardiaque: bradycardie
[5]; [6]
  pression artérielle: chute tensionnelle systo- diastolique très rapide

## O=C(c1ccc(Cl)cc1)C1CCN(CC2COc3ccccc3O2)CC1 (centres unmarked) [Exemple 6, Chlorhydratede la 1-[(2,3-dihydro-4H-1 ,4-benzodioxine)-2-ylméthyl]-4-(4-chlorobenzoyl) pipéridine]
Acute toxicity, oral
  LD50: 880 mg/kg

## CCc1ccc(C(=O)C2CCN(CC3COc4ccccc4O3)CC2)cc1 (centres unmarked) [Exemple 11, Chlorhydratede la 1-[(2,3-dihydro-4H-1,4-benzodioxin)-2-ylméthyl]-4-(4-éthylbenzoyl) pipéridine]
Acute toxicity, oral
  LD50: 1200 mg/kg

## Cc1ccc(C(=O)C2CCN(CC3COc4ccccc4O3)CC2)cc1 (centres unmarked) [Exemple 10]
Acute toxicity, oral
  LD50: 1460 mg/kg
